The term IC50 denotes the midpoint of a concentration-inhibition curve. What is called inhibition is the relative decrease from the control value, in per cent.

The target of assay [1] is T1, human NCX 1.1 current (I NCX) (Homo sapiens, UniProt P32418).
T1 construct: Cor.4U cells express cardiac proteins including NCX1; host or cells: Cor.4U hiPSC-derived cardiomyocytes
As to the kind of experiment: NCX current (I NCX), whole‐cell patch‐clamp in hiPSC‐derived cardiomyocytes. The class given is cell-based. The conditions noted are these: hiPSC‐CMs, 35–37°C. The text has this:
Human‐induced pluripotent stem cell (hiPSC)‐derived CMs (Cor.4U CMs; RRID:CVCL_Y550) were thawed, seeded onto gelatine‐coated coverslips, and maintained, as described in the manufacturer's protocol.
Manual patch‐clamp recordings of membrane currents (I NCX, L‐type Ca^2+ channel current [I CaL], human cardiac sodium 1.5 current [I Na], and I hERG) were undertaken using either an Axopatch 200B or Axopatch ID amplifier (Molecular Devices, USA), using the whole‐cell configuration. […]
The measurement of current in the K^+‐free bath solution using a ramp voltage protocol at 20‐s intervals represented the first control, after which values were measured in the presence of one or more increasing concentrations of ORM‐11372 and finally upon exposure to 10‐mM NiCl2. […] Therefore, to enhance the inward current and enable a solution with a certain concentration of ORM‐11372 to be measured, the concentrations of the K^+‐free and pipette solutions were altered. […] The outward human I NCX inhibition current was measured at the following ORM‐11372 concentrations: 3 (n = 4), 10 (n = 6), 30 (n = 4), and 100 (n = 3) nM. […] The outward I NCX current in rat CMs was measured at concentrations ranging from 1 to 1,000 nM (n = 5). The inward I NCX current in rats was measured in additional experiments under changed conditions, to enhance the inward I NCX current. […]

Another assay concerns the target 5‐HT2A receptor (Homo sapiens, UniProt P28223). As to the kind of experiment: Radioligand binding selectivity panel (Eurofins Cerep). To be noted: read-out: inhibition of specific ligand binding. As for the experimental part: (§1) Radioligand binding assays were performed at Eurofins Cerep SA (Celle L'Evescault, France), for testing the inhibition capacity of ORM‐11372 (at 10 μM with two replicates), in over 75 targets. These included receptors (e.g., human A1, A2A, and A3 adenosine receptors; α1 and α2 adrenoceptors; human β1–β3 adrenergic receptors; human D1, D2S, D3, D4.4, and D5 dopamine receptors; EGF and VEGF receptors; human M1–M5 muscarinic ACh receptors; human 5‐HT1A, 5‐HT2A, 5‐HT2B, 5‐HT2C, 5‐HT4e, 5‐HT5A, 5‐HT6, and 5‐HT7 receptors), ion channels (5‐HT3, Ca^2+, ATP‐dependent potassium channel [KATP], voltage‐dependent potassium channel [KV], small‐conductance calcium‐dependent potassium channel [SKCa], Na^+, and Cl^−), and transporters (adenosine, noradrenaline, dopamine, and 5‐HT). Follow‐up functional studies (with five concentrations and two replicates) were performed for 5‐HT2A receptors and noradrenaline transporter. Agonism and antagonism at h5‐HT2A receptors was explored in recombinant HEK 293 cells and intracellular calcium changes were detected using fluorimetry. Noradrenaline uptake was measured by carrying out scintillation counting of [^3H]noradrenaline incorporated into rat hypothalamus synaptosomes.

Another assay deals with 5‐HT2B receptor (Homo sapiens, UniProt P41595). Described as above. The conditions noted are these: read-out: inhibition of specific ligand binding. The protocol: as §1
5‐HT2B receptor, sequence (P41595 whole entry): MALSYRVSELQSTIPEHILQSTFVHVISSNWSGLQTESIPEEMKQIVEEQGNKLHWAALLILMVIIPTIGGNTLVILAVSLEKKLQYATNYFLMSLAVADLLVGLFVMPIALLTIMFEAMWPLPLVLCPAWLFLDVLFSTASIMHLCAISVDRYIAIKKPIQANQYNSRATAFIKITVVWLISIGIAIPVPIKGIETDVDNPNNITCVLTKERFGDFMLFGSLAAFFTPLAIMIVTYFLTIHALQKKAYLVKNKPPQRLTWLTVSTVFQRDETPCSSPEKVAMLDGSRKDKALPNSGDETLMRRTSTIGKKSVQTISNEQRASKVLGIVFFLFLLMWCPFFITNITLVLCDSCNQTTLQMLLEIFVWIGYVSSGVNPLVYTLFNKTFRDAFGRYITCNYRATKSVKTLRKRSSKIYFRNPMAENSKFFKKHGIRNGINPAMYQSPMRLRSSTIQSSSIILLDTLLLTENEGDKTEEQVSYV
The next assay has as its system Na^+/K^+‐ATPase. The assay is described as above. To be noted: 10 μM. As for the experimental part: as §1
For assay [2], the target named is noradrenaline transporter (Homo sapiens, UniProt P23975). The description is as above. To be noted: read-out: inhibition of specific ligand binding. As for the experimental part: as §1
noradrenaline transporter, sequence (P23975 whole entry): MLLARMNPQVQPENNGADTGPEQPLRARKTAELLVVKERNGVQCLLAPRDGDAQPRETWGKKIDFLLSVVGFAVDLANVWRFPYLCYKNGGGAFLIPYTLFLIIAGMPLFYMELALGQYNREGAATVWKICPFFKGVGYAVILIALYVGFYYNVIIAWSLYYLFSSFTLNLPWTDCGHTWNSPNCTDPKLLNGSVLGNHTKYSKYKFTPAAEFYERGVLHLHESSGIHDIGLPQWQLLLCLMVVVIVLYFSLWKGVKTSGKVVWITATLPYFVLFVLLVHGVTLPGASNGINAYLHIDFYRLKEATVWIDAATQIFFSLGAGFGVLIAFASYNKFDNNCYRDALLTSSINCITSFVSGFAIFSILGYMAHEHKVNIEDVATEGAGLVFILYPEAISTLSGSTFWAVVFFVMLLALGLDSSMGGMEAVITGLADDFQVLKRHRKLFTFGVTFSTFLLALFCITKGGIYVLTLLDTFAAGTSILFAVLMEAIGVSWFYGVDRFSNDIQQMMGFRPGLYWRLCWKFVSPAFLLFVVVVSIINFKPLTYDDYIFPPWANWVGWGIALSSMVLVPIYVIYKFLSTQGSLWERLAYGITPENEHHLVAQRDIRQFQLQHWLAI
The target in assay [3] is peripheral benzodiazepine receptor (Rattus norvegicus, UniProt P16257). Described as above. The conditions noted are these: read-out: inhibition of specific ligand binding. As for the experimental part: as §1
A further assay relates to ryanodine receptor. The assay is described as above. To be noted: 10 μM. The protocol:
as §1

Molecules are shown by their SMILES. Where “and” joins values, the source holds several entries; their conditions need not be identical. Equal entries are not always repeated. Where two headings read alike, the source gives them in different places.

5‐HT2A receptor, sequence (P28223 whole entry): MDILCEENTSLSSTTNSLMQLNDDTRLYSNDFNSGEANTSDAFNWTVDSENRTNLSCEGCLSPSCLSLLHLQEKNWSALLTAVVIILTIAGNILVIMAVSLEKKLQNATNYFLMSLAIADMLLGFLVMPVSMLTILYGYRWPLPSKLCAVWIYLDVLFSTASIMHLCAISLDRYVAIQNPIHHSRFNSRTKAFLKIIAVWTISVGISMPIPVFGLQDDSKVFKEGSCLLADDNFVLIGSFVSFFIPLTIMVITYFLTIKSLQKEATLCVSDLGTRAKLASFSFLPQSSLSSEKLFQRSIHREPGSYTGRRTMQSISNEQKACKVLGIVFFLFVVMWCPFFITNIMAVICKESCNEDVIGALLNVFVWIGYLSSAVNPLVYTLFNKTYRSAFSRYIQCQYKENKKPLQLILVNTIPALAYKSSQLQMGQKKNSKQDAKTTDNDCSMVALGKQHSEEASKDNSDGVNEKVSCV

On to `Nc1cccc(-c2ccc(CNc3ccc(F)cc3)o2)c1` [ORM‐11372], for which the IC50 in assay [1] (Ni^2+‐sensitive current at +60 mV, read-out: IC50 outward (reverse) I NCX) is 4.8 nM and 5 nM; in assay [1] (Ni^2+‐sensitive current at −100 mV, read-out: IC50 inward (forward) I NCX), 5.6 nM and 6 nM. Besides, the inhibition at 10 µM (on 5‐HT2A receptor; on 5‐HT2B receptor; in assay [2]; in assay [3]) was over 50% in each case. In addition, the “inhibition of specific ligand binding” value turned out to be 11% in the assay with Na^+/K^+‐ATPase and 15% in the assay with ryanodine receptor.
